Measurements taken from ChEMBL document CHEMBL1130851, “Synthesis and biological evaluation of a series of 2'-fluorinated-2',3'-dideoxy-2',3'-didehydro-(L)-nucleosides” (Bioorg Med Chem Lett, 1998).

Legend:
CCRF-CEM = assay: Compound concentration required to inhibit cell growth by 50% against CEM cells; assay type: functional; conditions: Homo sapiens, read-out: ID50 (the source's name)
[1] = test system: Human immunodeficiency virus; assay: Compound concentration required to inhibit the viral cell proliferation by 50% against HIV; Range = 0.3-0.5; assay type: functional, organism-based; conditions: Human immunodeficiency virus 1
[2] = Compound was tested for anti-HIV activity in MT-2/ IIIB cells and the ratio of the drug concentration (ID50) required to inhibit cell growth was reported.; assay type: functional, Homo sapiens
Hepatitis B virus = assay: Compound concentration required to inhibit the viral cell proliferation by 50% against HBV; assay type: functional, organism-based
[3] = test system: Human immunodeficiency virus; assay: Compound concentration required to inhibit the viral cell proliferation by 50% against HIV; Range = 0.1-0.2; assay type: functional, organism-based; conditions: Human immunodeficiency virus 1
[4] = test system: Human immunodeficiency virus; assay: Compound concentration required to inhibit the viral cell proliferation by 50% against HIV; Range = 2-3; assay type: functional, organism-based; conditions: Human immunodeficiency virus 1

## Nc1nc(=O)n([C@@H]2CC[C@H](CO)O2)cc1F
CCRF-CEM
  IC50: 67000 nM
[1]
  EC50: 300 nM
[2]
  ID50 ratio: >100
Hepatitis B virus
  EC50: 36 nM

## Nc1nc(=O)n([C@@H]2C=C[C@H](CO)O2)cc1F [ELVUCITABINE]
CCRF-CEM
  IC50: 7000 nM
[3]
  EC50: 100 nM
[2]
  ID50 ratio: 9
Hepatitis B virus
  EC50: 8 nM

## Nc1ccn([C@@H]2CS[C@H](CO)O2)c(=O)n1 [LAMIVUDINE]
CCRF-CEM
  IC50: 50000 nM
[4]
  EC50: 2000 nM
[2]
  ID50 ratio: >100
Hepatitis B virus
  EC50: 30 nM
